Results reported in ChEMBL document CHEMBL3872204, “Synthesis and immunopotentiating activity of novel isoxazoline functionalized coumarins” (Eur J Med Chem, 2016).
The source made the active and inactive calls. No cut-off for these calls is given here.

What was measured:
Mus musculus [1] = assay: Immunopotentiating activity in sheep RBC-immunized BALB/c mouse assessed as increase in interferon-gamma production in splenocytes administered orally for 14 days followed by incubation with ConA for 48 hrs by ELISA; format: functional, cell-based
Mus musculus [2] = assay: Immunopotentiating activity in sheep RBC-immunized BALB/c mouse assessed as B-cell activation by measuring IgG antibody titer in serum at 0.001 mg/kg, po for 14 days by hemagglutinination technique; format: functional, organism-based
Mus musculus [3] = assay: Immunopotentiating activity in sheep RBC-immunized BALB/c mouse assessed as ratio of CD4-positive splenic T-cells to CD8-positive splenic T-cells at 0.001 mg/kg, po for 14 days by flow cytometry (RVB = 1.56 +/- 0.09); format: functional
Mus musculus [4] = assay: Immunopotentiating activity in sheep RBC-immunized BALB/c mouse assessed as CD8-positive splenic T-cells at 0.1 mg/kg, po for 14 days by flow cytometry (reference value: 13.3 +/- 0.34%); format: functional
Mus musculus [5] = assay: Immunopotentiating activity in sheep RBC-immunized BALB/c mouse assessed as increase in isolated splenic T-cell proliferation administered orally for 14 days followed by incubation of isolated splenocytes with LPS for 72 hrs by MTT assay; format: functional
Mus musculus [6] = assay: Immunopotentiating activity in sheep RBC-immunized BALB/c mouse assessed as increase in isolated splenic […] proliferation administered orally for 14 days followed by incubation of isolated splenocytes with ConA for 72 hrs by MTT assay; format: functional
Mus musculus [7] = assay: Immunopotentiating activity in sheep RBC-immunized BALB/c mouse assessed as CD4-positive splenic T-cells at 0.001 mg/kg, po for 14 days by flow cytometry (reference value: 20.7 +/- 0.9%); format: functional
Mus musculus [8] = assay: Immunopotentiating activity in sheep RBC-immunized BALB/c mouse assessed as increase in IL2 production in splenocytes administered orally for 14 days followed by incubation with ConA for 48 hrs by ELISA; format: functional, cell-based
Mus musculus [9] = assay: Immunopotentiating activity in sheep RBC-immunized BALB/c mouse assessed as CD8-positive T-cell content in spleen at 0.1 mg/kg, po for 14 days by flow cytometry (reference value: 1.47 +/- 0.04 10^7No_unit); format: functional
Mus musculus [10] = assay: Immunopotentiating activity in sheep RBC-immunized BALB/c mouse assessed as increase in delayed-type hypersensitivity response by measuring left hind foot pad thickness at 0.001 mg/kg, po qd administered 2 hrs post immunization for 7 days measured 24 to 48 hrs post SRBC challenge by spheromicrometer method; format: functional, organism-based
Mus musculus [11] = assay: Immunopotentiating activity in sheep RBC-immunized BALB/c mouse assessed as B-cell activation by measuring IgM antibody titer in serum at 0.1 mg/kg, po for 14 days measured on day 7 post dose by hemagglutinination technique; format: functional, organism-based
Mus musculus [12] = assay: Immunopotentiating activity in sheep RBC-immunized BALB/c mouse assessed as increase in macrophage production by measuring increase in NO production administered orally for 14 days followed by incubation with LPS for 48 hrs by Griess assay; format: functional
Mus musculus [13] = assay: Immunopotentiating activity in sheep RBC-immunized BALB/c mouse assessed as increase in isolated splenic T-cell proliferation administered orally for 14 days followed by incubation of isolated splenocytes with ConA for 72 hrs by MTT assay; format: functional
Mus musculus [14] = organism: Mus musculus; assay: Cytotoxicity in BALB/c mouse splenocytes at 100 ug/ml measured after 72 hrs by MTT assay; format: toxicity; details: splenocyte
Mus musculus [15] = assay: Immunopotentiating activity in sheep RBC-immunized BALB/c mouse assessed as CD4-positive T-cell content in spleen at 0.001 mg/kg, po for 14 days by flow cytometry (reference value: 2.7 +/- 0.12 10^7No_unit); format: functional
Mus musculus [16] = assay: Immunopotentiating activity in sheep RBC-immunized BALB/c mouse assessed as increase in isolated splenic B-cell proliferation administered orally for 14 days followed by incubation of isolated splenocytes with LPS for 72 hrs by MTT assay; format: functional
Mus musculus [17] = assay: Immunopotentiating activity in sheep RBC-immunized BALB/c mouse assessed as CD8-positive T-cell content in spleen at 0.01 mg/kg, po for 14 days by flow cytometry (reference value: 1.47 +/- 0.04 10^7No_unit); format: functional
Mus musculus [18] = assay: Immunopotentiating activity in sheep RBC-immunized BALB/c mouse assessed as B-cell activation by measuring IgG antibody titer in serum at 0.01 mg/kg, po for 14 days by hemagglutinination technique; format: functional, organism-based
Mus musculus [19] = assay: Immunopotentiating activity in sheep RBC-immunized BALB/c mouse assessed as CD8-positive splenic T-cells at 0.01 mg/kg, po for 14 days by flow cytometry (reference value: 13.3 +/- 0.34%); format: functional
Mus musculus [20] = assay: Immunopotentiating activity in sheep RBC-immunized BALB/c mouse assessed as B-cell activation by measuring IgM antibody titer in serum at 0.01 mg/kg, po for 14 days measured on day 7 post dose by hemagglutinination technique; format: functional, organism-based
Splenic lymphocyte [21] = assay: Immunopotentiating activity in splenic lymphocytes (unknown origin) assessed as effect on proliferation by measuring cell viability pretreated followed by incubation of lymphocytes with LPS for 48 hrs by MTT assay; format: functional, cell-based
Mus musculus [22] = assay: Immunopotentiating activity in sheep RBC-immunized BALB/c mouse assessed as CD4-positive splenic T-cells at 0.1 mg/kg, po for 14 days by flow cytometry (reference value: 20.7 +/- 0.9%); format: functional
Mus musculus [23] = assay: Immunopotentiating activity in sheep RBC-immunized BALB/c mouse assessed as CD8-positive T-cell content in spleen at 0.001 mg/kg, po for 14 days by flow cytometry (reference value: 1.47 +/- 0.04 10^7No_unit); format: functional
Mus musculus [24] = assay: Immunopotentiating activity in sheep RBC-immunized BALB/c mouse assessed as CD4-positive T-cell content in spleen at 0.1 mg/kg, po for 14 days by flow cytometry (reference value: 2.7 +/- 0.12 10^7No_unit); format: functional
Mus musculus [25] = assay: Immunopotentiating activity in sheep RBC-immunized BALB/c mouse assessed as CD4-positive splenic T-cells at 0.01 mg/kg, po for 14 days by flow cytometry (reference value: 20.7 +/- 0.9%); format: functional
Mus musculus [26] = assay: Immunopotentiating activity in sheep RBC-immunized BALB/c mouse assessed as ratio of CD4-positive splenic T-cells to CD8-positive splenic T-cells at 0.01 mg/kg, po for 14 days by flow cytometry (RVB = 1.56 +/- 0.09); format: functional
Mus musculus [27] = assay: Immunopotentiating activity in sheep RBC-immunized BALB/c mouse assessed as CD4-positive T-cell content in spleen at 0.01 mg/kg, po for 14 days by flow cytometry (reference value: 2.7 +/- 0.12 10^7No_unit); format: functional
Splenic lymphocyte [28] = assay: Immunopotentiating activity in splenic lymphocytes (unknown origin) assessed as effect on proliferation by measuring cell viability pretreated followed by incubation of lymphocytes with ConA for 48 hrs by MTT assay; format: functional, cell-based
Mus musculus [29] = assay: Immunopotentiating activity in sheep RBC-immunized BALB/c mouse assessed as increase in IL4 production in splenocytes administered orally for 14 days followed by incubation with ConA for 48 hrs by ELISA; format: functional, cell-based
Mus musculus [30] = assay: Immunopotentiating activity in sheep RBC-immunized BALB/c mouse assessed as CD8-positive splenic T-cells at 0.001 mg/kg, po for 14 days by flow cytometry (reference value: 13.3 +/- 0.34%); format: functional
Mus musculus [31] = assay: Immunopotentiating activity in sheep RBC-immunized BALB/c mouse assessed as B-cell activation by measuring IgM antibody titer in serum at 0.001 mg/kg, po for 14 days measured on day 7 post dose by hemagglutinination technique; format: functional, organism-based
Mus musculus [32] = assay: Immunopotentiating activity in sheep RBC-immunized BALB/c mouse assessed as B-cell activation by measuring IgG antibody titer in serum at 0.1 mg/kg, po for 14 days by hemagglutinination technique; format: functional, organism-based
Mus musculus [33] = assay: Immunopotentiating activity in sheep RBC-immunized BALB/c mouse assessed as ratio of CD4-positive splenic T-cells to CD8-positive splenic T-cells at 0.1 mg/kg, po for 14 days by flow cytometry (RVB = 1.56 +/- 0.09); format: functional

Compound | Activity (Mus musculus [1]) | Activity (Mus musculus [2]) | Ratio (Mus musculus [3]) | Activity (Mus musculus [4]) [%] | Activity (Mus musculus [5]) | Activity (Mus musculus [6]) | Activity (Mus musculus [7]) [%] | Activity (Mus musculus [8]) | Activity (Mus musculus [9]) [×10⁷ No_unit] | Activity (Mus musculus [10]) | Activity (Mus musculus [11]) | Activity (Mus musculus [12]) | Activity (Mus musculus [13]) | Activity (Mus musculus [14]) | Activity (Mus musculus [15]) [×10⁷ No_unit] | Activity (Mus musculus [16]) | Activity (Mus musculus [17]) [×10⁷ No_unit] | Activity (Mus musculus [18]) | Activity (Mus musculus [19]) [%] | Activity (Mus musculus [20]) | other results
COc1ccc(C2=NOC(COc3ccc4ccc(=O)oc4c3)C2)cc1 (stereo unspecified) | Dose-dependent effect | Active | 1.32 | 21.6 | Dose-dependent effect | Dose-dependent effect | 30.3 | Dose-dependent effect | 1.48 | Active | Active | Dose-dependent effect | Dose-dependent effect | Non-Toxic | 1.23 | Dose-dependent effect | 1.35 | Active | 19.8 | Active | Activity (Splenic lymphocyte [21]): Dose-dependent effect; Activity (Mus musculus [22]): 40.2%; Activity (Mus musculus [23]): 1.26 ×10⁷ No_unit; Activity (Mus musculus [24]): 1.85 ×10⁷ No_unit; Activity (Mus musculus [25]): 34.2%; Ratio (Mus musculus [26]): 1.72; Activity (Mus musculus [27]): 1.61 ×10⁷ No_unit; Activity (Splenic lymphocyte [28]): Dose-dependent effect; Activity (Mus musculus [29]): Dose-dependent effect; Activity (Mus musculus [30]): 16.4%; Activity (Mus musculus [31]): Active; Activity (Mus musculus [32]): Active; Ratio (Mus musculus [33]): 1.86
COc1ccccc1C1=NOC(COc2ccc3ccc(=O)oc3c2)C1 (stereo unspecified) | Dose-dependent effect | Active | 1.32 | 18.4 | Dose-dependent effect | Dose-dependent effect | 20.3 | Dose-dependent effect | 1.37 | Active | Active | Dose-dependent effect | Dose-dependent effect | Non-Toxic | 1.02 | Dose-dependent effect | 1.18 | Active | 15.3 | Active | Activity (Splenic lymphocyte [21]): Dose-dependent effect; Activity (Mus musculus [22]): 31.1%; Activity (Mus musculus [23]): 0.88 ×10⁷ No_unit; Activity (Mus musculus [24]): 1.51 ×10⁷ No_unit; Activity (Mus musculus [25]): 24.2%; Ratio (Mus musculus [26]): 1.58; Activity (Mus musculus [27]): 1.31 ×10⁷ No_unit; Activity (Splenic lymphocyte [28]): Dose-dependent effect; Activity (Mus musculus [29]): Dose-dependent effect; Activity (Mus musculus [30]): 15.4%; Activity (Mus musculus [31]): Active; Activity (Mus musculus [32]): Active; Ratio (Mus musculus [33]): 1.69
